Assay results published in PubChem BioAssay (NCI).
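Exposure lasted 48 hours, with cells grown in 96-well plates and compounds tested at five concentrations. Here, GI50 denotes the concentration required for 50% inhibition of growth. TGI marks complete inhibition of growth.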

Assays:
Assay in all cases: NCI tumour cell line growth inhibition, 48 h
SK-OV-3 ovarian = test system: SK-OV-3 ovarian
CCRF-CEM leukemia = test system: CCRF-CEM leukemia
MCF7 breast = test system: MCF7 breast
SK-MEL-28 melanoma = test system: SK-MEL-28 melanoma
UACC-257 melanoma = test system: UACC-257 melanoma
U251 CNS = test system: U251 CNS
SK-MEL-2 melanoma = test system: SK-MEL-2 melanoma
BT-549 breast = test system: BT-549 breast
SF-539 CNS = test system: SF-539 CNS
SN12C renal = test system: SN12C renal
OVCAR-5 ovarian = test system: OVCAR-5 ovarian
CAKI-1 renal = test system: CAKI-1 renal
OVCAR-8 ovarian = test system: OVCAR-8 ovarian
MOLT-4 leukemia = test system: MOLT-4 leukemia
HS 578T breast = test system: HS 578T breast
HT29 colon = test system: HT29 colon
HCC-2998 colon = test system: HCC-2998 colon
RPMI-8226 leukemia = test system: RPMI-8226 leukemia
T-47D breast = test system: T-47D breast
KM12 colon = test system: KM12 colon
RXF 393 renal = test system: RXF 393 renal
SNB-75 CNS = test system: SNB-75 CNS
OVCAR-3 ovarian = test system: OVCAR-3 ovarian
UO-31 renal = test system: UO-31 renal
NCI-H522 lung = test system: NCI-H522 lung
MALME-3M melanoma = test system: MALME-3M melanoma
A549 NSCLC = test system: A549 NSCLC
UACC-62 melanoma = test system: UACC-62 melanoma
OVCAR-4 ovarian = test system: OVCAR-4 ovarian
SNB-19 CNS = test system: SNB-19 CNS
NCI-H460 lung = test system: NCI-H460 lung
COLO 205 colon = test system: COLO 205 colon
SK-MEL-5 melanoma = test system: SK-MEL-5 melanoma
TK-10 renal = test system: TK-10 renal
NCI/ADR-RES ovarian = test system: NCI/ADR-RES ovarian
NCI-H23 lung = test system: NCI-H23 lung
786-0 renal = test system: 786-0 renal
K-562 leukemia = test system: K-562 leukemia
M14 melanoma = test system: M14 melanoma
HCT-15 colon = test system: HCT-15 colon
A498 renal = test system: A498 renal
MDA-MB-435 = test system: MDA-MB-435
MDA-MB-231 breast = test system: MDA-MB-231 breast
HOP-62 NSCLC = test system: HOP-62 NSCLC
SF-295 CNS = test system: SF-295 CNS
LOX IMVI melanoma = test system: LOX IMVI melanoma
SR leukemia = test system: SR leukemia
DU-145 prostate = test system: DU-145 prostate
SW-620 colon = test system: SW-620 colon
SF-268 CNS = test system: SF-268 CNS
PC-3 prostate = test system: PC-3 prostate
ACHN renal = test system: ACHN renal
NCI-H226 lung = test system: NCI-H226 lung
HL-60(TB) leukemia = test system: HL-60(TB) leukemia
IGROV1 ovarian = test system: IGROV1 ovarian
HCT-116 colon = test system: HCT-116 colon

Question: Cn1cc(C2=C(c3cccc(Cl)c3)C(=O)NC2=O)c2ccccc21 was tested. Which GI50 (SK-OV-3 ovarian) did it give?
Answer: > 25 µM

Question: And the TGI (SK-OV-3 ovarian)?
Answer: > 25 µM

Question: What about the GI50 (CCRF-CEM leukemia) of the same molecule?
Answer: > 25 µM

Question: What about the TGI (CCRF-CEM leukemia) of the same molecule?
Answer: > 25 µM

Question: What about the GI50 (MCF7 breast) of the same molecule?
Answer: > 25 µM

Question: And the TGI (MCF7 breast)?
Answer: > 25 µM

Question: What about the GI50 (SK-MEL-28 melanoma) of the same molecule?
Answer: > 17.5 µM

Question: What about the TGI (SK-MEL-28 melanoma) of the same molecule?
Answer: > 25 µM

Question: And the GI50 (UACC-257 melanoma)?
Answer: 5.46 µM

Question: What about the TGI (UACC-257 melanoma) of the same molecule?
Answer: 17.7 µM

Question: And the GI50 (U251 CNS)?
Answer: 16.5 µM

Question: What about the TGI (U251 CNS) of the same molecule?
Answer: > 25 µM

Question: And the GI50 (SK-MEL-2 melanoma)?
Answer: > 25 µM

Question: What about the TGI (SK-MEL-2 melanoma) of the same molecule?
Answer: > 25 µM

Question: What about the GI50 (BT-549 breast) of the same molecule?
Answer: > 25 µM

Question: And the TGI (BT-549 breast)?
Answer: > 25 µM

Question: And the GI50 (SF-539 CNS)?
Answer: > 25 µM

Question: And the TGI (SF-539 CNS)?
Answer: > 25 µM

Question: And the GI50 (SN12C renal)?
Answer: 20.6 µM

Question: And the TGI (SN12C renal)?
Answer: > 25 µM

Question: And the GI50 (OVCAR-5 ovarian)?
Answer: > 25 µM

Question: What about the TGI (OVCAR-5 ovarian) of the same molecule?
Answer: > 25 µM

Question: And the GI50 (CAKI-1 renal)?
Answer: > 17 µM

Question: What about the TGI (CAKI-1 renal) of the same molecule?
Answer: > 25 µM

Question: What about the GI50 (OVCAR-8 ovarian) of the same molecule?
Answer: > 25 µM

Question: And the TGI (OVCAR-8 ovarian)?
Answer: > 25 µM

Question: And the GI50 (MOLT-4 leukemia)?
Answer: 15.8 µM

Question: And the TGI (MOLT-4 leukemia)?
Answer: > 25 µM

Question: And the GI50 (HS 578T breast)?
Answer: 7.28 µM

Question: And the TGI (HS 578T breast)?
Answer: > 25 µM

Question: And the GI50 (HT29 colon)?
Answer: 10.3 µM

Question: And the TGI (HT29 colon)?
Answer: > 25 µM

Question: And the GI50 (HCC-2998 colon)?
Answer: 9.59 µM

Question: And the TGI (HCC-2998 colon)?
Answer: > 25 µM

Question: And the GI50 (RPMI-8226 leukemia)?
Answer: > 25 µM

Question: What about the TGI (RPMI-8226 leukemia) of the same molecule?
Answer: > 25 µM

Question: And the GI50 (T-47D breast)?
Answer: 20 µM

Question: What about the TGI (T-47D breast) of the same molecule?
Answer: > 25 µM

Question: What about the GI50 (KM12 colon) of the same molecule?
Answer: > 25 µM

Question: What about the TGI (KM12 colon) of the same molecule?
Answer: > 25 µM

Question: What about the GI50 (RXF 393 renal) of the same molecule?
Answer: 8.22 µM

Question: What about the TGI (RXF 393 renal) of the same molecule?
Answer: > 25 µM

Question: What about the GI50 (SNB-75 CNS) of the same molecule?
Answer: 6.65 µM

Question: What about the TGI (SNB-75 CNS) of the same molecule?
Answer: > 25 µM

Question: What about the GI50 (OVCAR-3 ovarian) of the same molecule?
Answer: > 25 µM

Question: And the TGI (OVCAR-3 ovarian)?
Answer: > 25 µM

Question: And the GI50 (UO-31 renal)?
Answer: 8.3 µM

Question: And the TGI (UO-31 renal)?
Answer: > 25 µM

Question: And the GI50 (NCI-H522 lung)?
Answer: > 25 µM

Question: And the TGI (NCI-H522 lung)?
Answer: > 25 µM

Question: And the GI50 (MALME-3M melanoma)?
Answer: > 25 µM

Question: What about the TGI (MALME-3M melanoma) of the same molecule?
Answer: > 25 µM

Question: What about the GI50 (A549 NSCLC) of the same molecule?
Answer: > 25 µM

Question: What about the TGI (A549 NSCLC) of the same molecule?
Answer: > 25 µM

Question: And the GI50 (UACC-62 melanoma)?
Answer: 5.19 µM

Question: What about the TGI (UACC-62 melanoma) of the same molecule?
Answer: 12.7 µM

Question: What about the GI50 (OVCAR-4 ovarian) of the same molecule?
Answer: > 22.6 µM

Question: And the TGI (OVCAR-4 ovarian)?
Answer: > 25 µM

Question: And the GI50 (SNB-19 CNS)?
Answer: > 25 µM

Question: What about the TGI (SNB-19 CNS) of the same molecule?
Answer: > 25 µM

Question: What about the GI50 (NCI-H460 lung) of the same molecule?
Answer: > 22.7 µM

Question: And the TGI (NCI-H460 lung)?
Answer: > 25 µM

Question: What about the GI50 (COLO 205 colon) of the same molecule?
Answer: 5.65 µM

Question: And the TGI (COLO 205 colon)?
Answer: 14.4 µM

Question: And the GI50 (SK-MEL-5 melanoma)?
Answer: 10.7 µM

Question: And the TGI (SK-MEL-5 melanoma)?
Answer: > 25 µM

Question: What about the GI50 (TK-10 renal) of the same molecule?
Answer: 13.4 µM

Question: What about the TGI (TK-10 renal) of the same molecule?
Answer: > 25 µM

Question: What about the GI50 (NCI/ADR-RES ovarian) of the same molecule?
Answer: > 25 µM

Question: And the TGI (NCI/ADR-RES ovarian)?
Answer: > 25 µM

Question: What about the GI50 (NCI-H23 lung) of the same molecule?
Answer: > 25 µM

Question: And the TGI (NCI-H23 lung)?
Answer: > 25 µM

Question: And the GI50 (786-0 renal)?
Answer: 20.4 µM

Question: What about the TGI (786-0 renal) of the same molecule?
Answer: > 25 µM

Question: And the GI50 (K-562 leukemia)?
Answer: 12.6 µM

Question: And the TGI (K-562 leukemia)?
Answer: > 25 µM

Question: What about the GI50 (M14 melanoma) of the same molecule?
Answer: 8.03 µM

Question: And the TGI (M14 melanoma)?
Answer: 23 µM

Question: And the GI50 (HCT-15 colon)?
Answer: > 25 µM

Question: And the TGI (HCT-15 colon)?
Answer: > 25 µM

Question: What about the GI50 (A498 renal) of the same molecule?
Answer: 8.25 µM

Question: And the TGI (A498 renal)?
Answer: > 25 µM

Question: And the GI50 (MDA-MB-435)?
Answer: 12.6 µM

Question: What about the TGI (MDA-MB-435) of the same molecule?
Answer: > 25 µM

Question: What about the GI50 (MDA-MB-231 breast) of the same molecule?
Answer: > 12.6 µM

Question: What about the TGI (MDA-MB-231 breast) of the same molecule?
Answer: > 25 µM

Question: And the GI50 (HOP-62 NSCLC)?
Answer: > 25 µM

Question: And the TGI (HOP-62 NSCLC)?
Answer: > 25 µM

Question: What about the GI50 (SF-295 CNS) of the same molecule?
Answer: > 25 µM

Question: What about the TGI (SF-295 CNS) of the same molecule?
Answer: > 25 µM

Question: And the GI50 (LOX IMVI melanoma)?
Answer: > 25 µM

Question: What about the TGI (LOX IMVI melanoma) of the same molecule?
Answer: > 25 µM

Question: What about the GI50 (SR leukemia) of the same molecule?
Answer: 13.9 µM

Question: And the TGI (SR leukemia)?
Answer: > 25 µM

Question: And the GI50 (DU-145 prostate)?
Answer: > 25 µM

Question: And the TGI (DU-145 prostate)?
Answer: > 25 µM

Question: What about the GI50 (SW-620 colon) of the same molecule?
Answer: > 25 µM

Question: What about the TGI (SW-620 colon) of the same molecule?
Answer: > 25 µM

Question: What about the GI50 (SF-268 CNS) of the same molecule?
Answer: > 25 µM

Question: And the TGI (SF-268 CNS)?
Answer: > 25 µM

Question: And the GI50 (PC-3 prostate)?
Answer: 18.3 µM

Question: And the TGI (PC-3 prostate)?
Answer: > 25 µM

Question: And the GI50 (ACHN renal)?
Answer: > 25 µM

Question: And the TGI (ACHN renal)?
Answer: > 25 µM

Question: What about the GI50 (NCI-H226 lung) of the same molecule?
Answer: > 20.6 µM

Question: What about the TGI (NCI-H226 lung) of the same molecule?
Answer: > 25 µM

Question: What about the GI50 (HL-60(TB) leukemia) of the same molecule?
Answer: > 25 µM

Question: And the TGI (HL-60(TB) leukemia)?
Answer: > 25 µM

Question: What about the GI50 (IGROV1 ovarian) of the same molecule?
Answer: 12.3 µM

Question: What about the TGI (IGROV1 ovarian) of the same molecule?
Answer: > 25 µM

Question: What about the GI50 (HCT-116 colon) of the same molecule?
Answer: > 25 µM

Question: What about the TGI (HCT-116 colon) of the same molecule?
Answer: > 25 µM
